Test system: mouse Leydig tumor cell line R2C
Experiment: Test 1: testosterone generation of the mouse Leydig tumor cell line R2C (Testosterone EIA kit)
Assay type: cell-based
Conditions: R2C cells
Excerpt: Test 1: Testing testosterone generation of the mouse Leydig tumor cell line R2C.
Materials: The extract of C. tubulosa prepared in the aforesaid first embodiment, and said echinacoside and acteoside used in the second and the third embodiments. The mouse Leydig tumor cell line R2C was obtained from the Japan Health Sciences Foundation (Osaka), and a Testosterone EIA testing kit was used to test testosterone levels.
Method: The R2C cells were subcultured in a cell medium called Ham's F10, which comprised 15% bovine serum, 2.5% fetal bovine serum, 100 units/mL penicillin G, and 100 μg/mL streptomycin. The cells were inoculated on a 24-hole plate at a density of 5×10^5 cells/mL, and 500 μL of the cell medium was added into each hole. After culturing for 24 hours, 50 μL of solutions resulted from dissolving samples from the first to the third embodiments in the same cell medium was added into each hole. After culturing for another 4 fours, the cells were collected along with the cell medium and subjected to centrifugation, so as to collect supernatant that included the cell medium. The Testosterone EIA testing kit (manufactured by Cayman Chemical Corporate) was used to determine testosterone concentrations in the each tested sample, and the results were shown in FIG. 1.

| Compound | testosterone generation (testosterone level in the supernatant) versus control (10 μg/mL) | testosterone generation (testosterone level in the supernatant) versus control (100 μg/mL) | testosterone generation (testosterone level in the supernatant) versus control (30 μg/mL) |
| --- | --- | --- | --- |
| C[C@@H]1O[C@@H](O[C@@H]2[C@@H](O)[C@H](OCCc3ccc(O)c(O)c3)O[C@H](CO)[C@H]2OC(=O)/C=C/c2ccc(O)c(O)c2)[C@H](O)[C@H](O)[C@H]1O [acteoside] | increased | increased |  |
| C[C@@H]1O[C@@H](O[C@@H]2[C@@H](O)[C@H](OCCc3ccc(O)c(O)c3)O[C@H](CO[C@@H]3O[C@H](CO)[C@@H](O)[C@H](O)[C@H]3O)[C@H]2OC(=O)/C=C/c2ccc(O)c(O)c2)[C@H](O)[C@H](O)[C@H]1O [echinacoside] | increased | increased to twice as much as that of the control | increased |

From patent publication US20080261896A1, “Testosterone generating and metabolizing enhancer” (Sinphar Pharmaceutical Co., Ltd., priority 2007, published 2008)
